# Test results reported in US5385927A, “Hydroxy-3-[1-(1H-imidazol-4-yl)alkyl]-benzenecarboximidamides and their use in treating glaucoma” (priority 1993, dated 1995).
# Like-named read-outs stand apart in the source and are kept apart here.
# What was measured:
# male NMRI mice = test: Toxicity by means of Irwin's test, intraperitoneal; format: in vivo, mouse (NMRI); conditions: death of two out of three animals within 24 hours
# Protocol: The toxicity of the compounds according to the present invention has been determined in male NMRI mice by means of Irwin's test (S. IRWIN, Psychopharmacologia, 13, (1968), 222-257). Progressive doses of the compound to be tested are administered intraperitoneally to groups of three mice until the lethal dose is reached (dose which causes the death of two out of three animals within 24 hours).
# It can be seen from this Table that the compounds of the invention have a very low toxicity.
# [1] = system: intraocular pressure of the treated eye; test: Intraocular pressure variation in awake normotensive rabbits, treated eye; format: in vivo, rabbit (New Zealand White)
# Protocol: the 1st column indicates the compound tested,
# the 2nd column indicates the concentration of the compound, in percent (in weight per volume),
# the 3rd, 4th, 5th, 6th and 7th columns indicate the variation in intraocular pressure (ΔP) expressed in percent, with respect to an animal treated with a collyrium containing no compound to be tested, measured after 30 minutes, 1, 2, 3 or 6 hours respectively.
# [2] = system: presynaptic α2-adrenergic receptor (guinea-pig ileum); test: Inhibition of the contraction of the isolated guinea-pig ileum induced by electrical stimulation (presynaptic α2-adrenergic agonist properties); conditions: for IC50: concentration that reduces by 50% the intensity of the muscle contraction, electrical stimulation
# Excerpt: Stimulation of the guinea-pig ileum.
# Longitudinal muscle fragments attached to an isometric force indicator are immersed in Tyrode's solution and are stretched with a force of 1 g (G. M. DREW, Brit. J. Pharmacol. 64, (1978), 293-300; M. ANDREJAK et al., Naunyn-Schmiedeberg's Arch. Pharmacol. 314, (1980), 83-87).
# Electrical stimulation of the parasympathetic nerves associated with the ileum fragments causes a contraction of the muscle. This contraction is reduced in the presence of a presynaptic α2 -agonist and the magnitude by which the contraction is reduced depends on the concentration of the agonist used. This effect is antagonized by the simultaneous presence of an α2 -antagonist such as α-yohimbine.
# The compounds to be studied have been tested at increasing concentrations ranging from 10^-10 to 10^-3 mole/l. The concentration (IC50 in mole/l) that reduces by 50% the intensity of the muscle contraction is determined.
# Table I gives the IC50 concentrations (in mole/l) obtained for the compounds of the invention (except for compound 6, for which compound the IC30 concentration is given).
# [3] = background of the patent, cited from earlier work
# pupil diameter = test: Effect on the pupil diameter of the treated eye and of the contralateral eye; conditions: clonidine: ipsilateral eye at 0.1 and 0.5%; compounds of the invention: treated or contralateral eye at doses of Table II
# Protocol: The pupil diameters are measured visually at the point of maximal vertical diameter, using a millimetric metal standard.
# [4] = system: intraocular pressure of the contralateral eye
# Protocol: All the doses tested are administered to three rabbits (weight 2-2.5 kg) of both sexes according to a "cross-over" experimental protocol in which each animal is also used in the control group. […] The intraocular pressure is measured tonometrically with a BIORAD pneumatonograph (DIGILAB MODULAR ONE) after local anesthesia using 2 drops of a 0.4% (in weight per volume) solution of oxybuprocaine hydrochloride.
# [5] = system: mucous membrane of the treated eye (conjunctivae); test: Effect on the mucous membrane of the treated eye (hypohemia); format: in vivo, rabbit (New Zealand White)
# Excerpt: Hypohemia manifests itself by insufficient blood irrigation of the conjunctiva, which can result in irreversible local ischemias.
# [6] = ocular or topical use unless stated
# Protocol for heart rate: The compounds to be studied are administered as a solution in 30 microliters of sterile distilled water (collyrium) at concentrations ranging from 0 (reference) to 0.5% (in weight per volume).
structure (smiles),measurement,setting,value
"CC(c1c[nH]cn1)c1cccc(C(=N)N)c1O (single isomer, unassigned; (+)) [D, (+)-2-hydroxy-3-[1-(1H-imidazol-4-yl)ethyl]-benzenecarboximidamide]",Lethal dose,male NMRI mice,25 mg/kg
same,"ΔP [30 min], variation in intraocular pressure",[1]; 0.01% w/v,-14.1%
same,"ΔP [2 h], variation in intraocular pressure",[1]; 0.01% w/v,-17.7%
same,"ΔP [6 h], variation in intraocular pressure",[1]; 0.01% w/v,-15.1%
same,IC50,[2],3.9 nM
"N=C(NO)c1cccc(Cc2c[nH]cn2)c1O [C, N,2-dihydroxy-3-(1H-imidazol-4-ylmethyl)-benzenecarboximidamide]",Lethal dose,male NMRI mice,232 mg/kg
same,IC50,[2],140 nM
CC(=O)Nc1nnc(S(N)(=O)=O)s1 [acetazolamide],Side-effects (in words),"[3]; carbonic anhydrase inhibitors, systemic administration","depression of the central nervous system, weight loss and, mainly, bone marrow hypofunction"
Clc1cccc(Cl)c1N=C1NCCN1 [clonidine],Change in the pupil diameter / mydriasis (in words),pupil diameter,causes an important mydriasis of the ipsilateral eye
same,ΔP in the contralateral eye,"[4]; 0.01%, after 2 hours",-9.5%
same,ΔP in the contralateral eye,"[4]; 0.01%, after 6 hours",-9.2%
same,ΔP in the contralateral eye,"[4]; 0.1%, after 2 hours",-10.2%
same,ΔP in the contralateral eye,"[4]; 0.1%, after 6 hours",+2.6%
same,ΔP in the contralateral eye,"[4]; 0.5%, after 2 hours",-26.3%
same,ΔP in the contralateral eye,"[4]; 0.5%, after 6 hours",+15%
same,Side-effects (in words),[3]; [6],"mydriasis, as well as an initial phase of ocular hypertension (biphasic effect)"
same,Whitening of the conjunctivae,"[5]; 0.01%, after 30 minutes",whitening of the conjunctivae is observed after 30 minutes
same,Whitening of the conjunctivae,"[5]; 0.1%, after 1 hour",this effect is still present after 1 hour
same,Biphasic effect on intraocular pressure (in words),[1],"initially induces hypertension of the treated eye, which effect increases with the concentration of the product"
same,"ΔP [30 min], variation in intraocular pressure",[1]; 0.01% w/v,+8.0%
same,"ΔP [2 h], variation in intraocular pressure",[1]; 0.01% w/v,-8.8%
same,"ΔP [6 h], variation in intraocular pressure",[1]; 0.01% w/v,-9.2%
same,"ΔP [30 min], variation in intraocular pressure",[1]; 0.1% w/v,+23.4%
same,"ΔP [2 h], variation in intraocular pressure",[1]; 0.1% w/v,+36.2%
same,"ΔP [3 h], variation in intraocular pressure",[1]; 0.1% w/v,+11.4%
same,"ΔP [30 min], variation in intraocular pressure",[1]; 0.5% w/v,+31.4%
same,"ΔP [2 h], variation in intraocular pressure",[1]; 0.5% w/v,+39.4%
same,"ΔP [3 h], variation in intraocular pressure",[1]; 0.5% w/v,+8.6%
same,Slowing of the heart rate,"heart rate; 0.01%, after 3 hours",10.7%
same,Slowing of the heart rate,"heart rate; 0.1%, after only 1 hour",17.9%
same,IC50,[2],17 nM
"CC(C)NC(=N)c1cccc(Cc2c[nH]cn2)c1O [F, 2-hydroxy-3-(1H-imidazol-4-ylmethyl)-N-(1-methylethyl)-benzenecarboximidamide]",Lethal dose,male NMRI mice,155 mg/kg
same,IC50,[2],6400 nM
CNCC(O)c1ccc(OC(=O)C(C)(C)C)c(OC(=O)C(C)(C)C)c1 (stereo not shown) [dipivalylepinephrine],Side-effects (in words),[3]; [6],sensations of burning or irritation
"N=C(NN)c1cccc(Cc2c[nH]cn2)c1O [G, 2-hydroxy-3-(1H-imidazol-4-ylmethyl)-benzenecarboximidic acid hydrazide]",Lethal dose,male NMRI mice,416 mg/kg
same,"IC30, inhibition of the contraction of the guinea-pig ileum",[2]; IC30 printed in the IC50 column,2500 nM
"CNC(=N)c1cccc(Cc2c[nH]cn2)c1O [B, 2-hydroxy-3-(1H-imidazol-4-ylmethyl)-N-methyl-benzenecarboximidamide]",Lethal dose,male NMRI mice,230 mg/kg
same,"ΔP [30 min], variation in intraocular pressure",[1]; 0.5% w/v,-5.5%
same,"ΔP [1 h], variation in intraocular pressure",[1]; 0.5% w/v,-10.8%
same,"ΔP [2 h], variation in intraocular pressure",[1]; 0.5% w/v,-13.3%
same,"ΔP [3 h], variation in intraocular pressure",[1]; 0.5% w/v,-12.8%
same,"ΔP [6 h], variation in intraocular pressure",[1]; 0.5% w/v,-7.6%
same,IC50,[2],2500 nM
"CC(c1c[nH]cn1)c1cccc(C(=N)N)c1O (single isomer, unassigned; (-)) [E, (-)-2-hydroxy-3-[1-(1H-imidazol-4-yl)ethyl]-benzenecarboximidamide]",Lethal dose,male NMRI mice,248 mg/kg
same,Hypohemia of the treated eye,[5]; 0.5%,do not induce hypohemia
same,"ΔP [30 min], variation in intraocular pressure",[1]; 0.5% w/v,-11.6%
same,"ΔP [1 h], variation in intraocular pressure",[1]; 0.5% w/v,-12.6%
same,"ΔP [6 h], variation in intraocular pressure",[1]; 0.5% w/v,-6.6%
same,IC50,[2],200 nM
"N=C(N)c1cccc(Cc2c[nH]cn2)c1O [A, 2-hydroxy-3-(1H-imidazol-4-ylmethyl)-benzenecarboximidamide]",Lethal dose,male NMRI mice,> 216 mg/kg
same,Hypohemia of the treated eye,[5]; 0.1%,do not induce hypohemia
same,"ΔP [30 min], variation in intraocular pressure",[1]; 0.05% w/v,-5.9%
same,"ΔP [2 h], variation in intraocular pressure",[1]; 0.05% w/v,-18.6%
same,"ΔP [6 h], variation in intraocular pressure",[1]; 0.05% w/v,-1.1%
same,"ΔP [30 min], variation in intraocular pressure",[1]; 0.1% w/v,-9.2%
same,"ΔP [2 h], variation in intraocular pressure",[1]; 0.1% w/v,-21.2%
same,"ΔP [6 h], variation in intraocular pressure",[1]; 0.1% w/v,-16.1%
same,IC50,[2],62 nM
